Measurements reported in US10875871B2, “Photosensitizer” (Tampereen Korkeakoulusäätiö sr, priority 2016, dated 2020).
Entries after “also recorded” stand apart in the source; their conditions may differ.

Columns and labels:
[1] = Leeching test of dyed paper in PBS buffer; format: physicochemical
Protocol: Stability of the dye Pc4 against was tested with PBS buffer pH 7.2. The absorbance and emission of PBS buffer incubated with dye papers were measured for checking the leeching (FIGS. 9a and b). […] Absorbance and emission of PBS buffer from each vial was measured after 1 h to check the leeching of dyes from papers.

[2] = test system: E. coli; experiment: Antimicrobial inactivation under consumer LED lamp; format: cell-based, Escherichia coli; details: dyed filter paper, 1 h illumination from LED lamp
Protocol: (§1) The antimicrobial efficiency of the dye was confirmed by CFU method using microbes E. coli MG1655 (E. coli Genetic Resources at Yale) and A. baylyi ADP1 (ATCC 33305). […] The microplate was illuminated in the solar simulator for 1 hour. UV-IR radiations were cut off using a combination of KG3 band pass filter (315-750 nm transmittance) and ? c-17 yellow filter (transmittance >485 nm). Similarly, light control samples were prepared by depositing microbial medium over dyed and un-dyed samples by covering microplate with aluminum foil for 1 h at room temperature. After 1 h of illumination or incubation, the microbes were extracted with LB medium (10 g/l tryptone, 5 g/l yeast extract, 5 g/l NaCl) (975 μl) and serial dilutions were made from each extract. The dilutions were then plated on LA agar plates and incubated at 30° C. overnight. The number of colonies grown on the agar plate was counted and CFUs per milliliter were calculated from it.
(§2) The spectrum of light emitted from the lamp prior to the experiments was measured. […] In addition, the power density of the lamp was also measured at different distances. […] The absorptance of phthalocyanine Pc4 and porphyrin ZnPf papers were calculated from reflectance and transmittance measurement of dyed papers using integrating sphere (IS) detector. The absorptance profiles were very similar to the absorbance measurement in solution. […]

[3] = test system: A. baylyi; experiment: Antimicrobial inactivation under consumer LED lamp; format: cell-based, Acinetobacter baylyi; details: dyed filter paper, 1 h illumination from LED lamp
Protocol: as §1, with “The microplate was illuminated in the solar simulator for 1 hour.” left out
as §2

[4] = test system: E. coli MG1655; experiment: Colony forming unit (CFU) method, solar simulator; format: cell-based, Escherichia coli; details: for Colony counts after incubation / CFU/ml / Colony counts after incubation (Average) / Colony counts after incubation (Duplicate): E. Coli
Protocol: as §1

[5] = test system: Escherichia coli (XL1-Blue) carrying plasmid pBAV1C-T5-lux; experiment: Screening test with bioluminescent E. coli on dyed filter paper discs; format: cell-based; details: dyed filter paper discs on LA agar, 1 hour illumination, 18 mWcm−2
Protocol: (§3) The efficiency of dyes (Pc1, Pc2, Pc3, Pc4) was screened by conducting antimicrobial test with bioluminescent bacterial strains Escherichia coli (XL1-Blue, Stratagene, USA) and Acinetobacter baylyi ADP1 (DSM 24193) carrying plasmid pBAV1C-T5-lux (the plasmid is chloramphenicol resistance derivate of the pBAV1K-T5-lux plasmid (Addgene #55800). The filter papers (12.25 cm^2) were soaked in respective dye solution (0.9 mg dye in 200 μl solvent) and allowed to dry on it. After drying, three circular discs (0.5 cm diameter) were cut from each filter paper and pasted on the LA agar (15 g/l agar, 10 g/l tryptone, 5 g/l yeast extract, 5 g/l NaCl) gel plate in such a way that each row corresponds to each dye. A circular dark screen of 0.3 cm height with a square hole in the center was placed over the agar plate. The square hole was cut in such a way that, one column which includes all the four dyes will be under the dark area of the screen while the two remaining columns will be inside the square hole. Two filters [KG3 band pass filter (315-750 nm transmittance) and ? […] Luminescence arising from the setup was recorded (Xenogen IVIS 100) before the microbial deposition on the filter paper discs. […] Luminescence of the agar plate before and after illumination of 1 hour was measured and the efficient dye which produces less luminescence was screened out from the set.

[6] = test system: Acinetobacter baylyi ADP1 carrying plasmid pBAV1C-T5-lux; experiment: Screening test with bioluminescent Acinetobacter baylyi on dyed filter paper discs; format: cell-based; details: dyed filter paper discs on LA agar, 1 hour illumination, 18 mWcm−2
Protocol: as §3

[7] = test system: A. baylyi ADP1; experiment: Colony forming unit (CFU) method, solar simulator; format: cell-based, Acinetobacter baylyi; details: for Colony counts after incubation / CFU/ml / Colony counts after incubation (Average) / Colony counts after incubation (Duplicate): Acinetobacter baylyi
Protocol: as §1

[8] = Pc4 filter paper-Dark 1 h, dilution factor 2.50E−03, 0.1 ml plated
[9] = Pc4 filter paper-Dark 1 h, dilution factor 2.50E−04, 0.1 ml plated
[10] = Pc4 filter paper-Dark 1 h, dilution factor 2.50E−05, 0.1 ml plated
[11] = Pc4 filter paper-Dark 1 h, dilution factor 2.50E−06, 0.1 ml plated
[12] = illuminated Pc4 filter paper 1 h, dilution factor 2.50E−02, 0.1 ml plated
[13] = illuminated Pc4 filter paper 1 h, dilution factor 2.50E−03, 0.1 ml plated
[14] = illuminated Pc4 filter paper 1 h, dilution factor 2.50E−04, 0.1 ml plated
[15] = illuminated Pc4 filter paper 1 h, dilution factor 2.50E−05, 0.1 ml plated
[16] = illuminated Pc4 filter paper 1 h, dilution factor 2.50E−06, 0.1 ml plated
[17] = Pc4 filter paper-Dark 1 h, dilution factor 2.50E−07, 0.1 ml plated
[18] = illuminated Pc4 filter paper 1 h, dilution factor 2.50E−07, 0.1 ml plated

C[n+]1ccc(-c2c3nc(c(-c4cc[n+](C)cc4)c4ccc([nH]4)c(-c4cc[n+](C)cc4)c4nc(c(-c5cc[n+](C)cc5)c5ccc2[nH]5)C=C4)C=C3)cc1.I.I.I.I.[Zn+2] [ZnPf, Zn(II)tetrakis[methylpyridinium iodide]porphyrin, reference compound]
absorbance of PBS extract of dyed paper (leeching) ([1]; 28 mg dyed paper in 4 ml PBS pH 7.2, 1 hour, room temperature): strong absorption peak at 422 nm
emission of PBS extract of dyed paper (leeching) ([1]; PBS pH 7.2, excited at 422 nm, after 1 hour of incubation): intense emission peak
inactivation of microorganisms [2]: complete inactivation
inactivation of microorganisms [3]: complete inactivation

{4,4′,4″,4″-(29H,31H-phthalocyanine-1(4),8(11),15(18),22(25)-tetrayl-κ 4N29,N30,N31,N32)tetrakis [1-methylpyridiniumato(2-)]}zinc(4+) tetraiodide [Pc4]
Colony counts after incubation ([4]; Pc4 filter paper-Dark 1 h, dilution factor 2.50E−02, 0.1 ml plated): Too many to count
Colony counts after incubation [4, 8]: Too many to count
Colony counts after incubation [4, 9]: Too many to count
Colony counts after incubation [4, 10]: Too many to count
CFU/ml [4, 11]: 1.51E+09 CFU/ml
Colony counts after incubation [4, 11]: 327
Colony counts after incubation (Average) [4, 11]: 378
Colony counts after incubation (Duplicate) [4, 11]: 429
CFU/ml [4, 12]: 0.00E+00 CFU/ml
Colony counts after incubation [4, 12]: 0
Colony counts after incubation (Average) [4, 12]: 0
Colony counts after incubation (Duplicate) [4, 12]: 0
CFU/ml [4, 13]: 0.00E+00 CFU/ml
Colony counts after incubation [4, 13]: 0
Colony counts after incubation (Average) [4, 13]: 0
Colony counts after incubation (Duplicate) [4, 13]: 0
CFU/ml [4, 14]: 0.00E+00 CFU/ml
Colony counts after incubation [4, 14]: 0
Colony counts after incubation (Average) [4, 14]: 0
Colony counts after incubation (Duplicate) [4, 14]: 0
CFU/ml [4, 15]: 0.00E+00 CFU/ml
Colony counts after incubation [4, 15]: 0
Colony counts after incubation (Average) [4, 15]: 0
Colony counts after incubation (Duplicate) [4, 15]: 0
CFU/ml [4, 16]: 0.00E+00 CFU/ml
Colony counts after incubation [4, 16]: 0
Colony counts after incubation (Average) [4, 16]: 0
Colony counts after incubation (Duplicate) [4, 16]: 0
microbial growth on plates ([4]; E. coli, illuminated Pc4 filter paper, 1 hour solar simulator): No microbial growth
efficiency of dye (luminescence after illumination) [5]: most efficient
efficiency of dye (luminescence after illumination) [6]: most efficient
absorbance of PBS extract of dyed paper (leeching) ([1]; PBS pH 7.2, 20 h of incubation at room temperature): did not show any peak corresponding to the dye
emission of PBS extract of dyed paper (leeching) ([1]; PBS pH 7.2, excitation at 694 nm): very faint emission peak of negligible intensity
stability against leeching from paper ([1]; dye impregnated on filter paper, PBS buffer pH 7.2): exceptionally high stability against leeching; also recorded: does not release back to solution
inactivation of microorganisms [2]: complete inactivation
inactivation of microorganisms [3]: complete inactivation
microbial growth on plates ([7]; A. baylyi, illuminated Pc4 filter paper, 1 hour solar simulator): No microbial growth
Colony counts after incubation [7, 8]: Too many to count
Colony counts after incubation [7, 9]: Too many to count
CFU/ml [7, 10]: 7.06E+07 CFU/ml
Colony counts after incubation [7, 10]: 175
Colony counts after incubation (Average) [7, 10]: 176.5
Colony counts after incubation (Duplicate) [7, 10]: 178
CFU/ml [7, 11]: 5.20E+07 CFU/ml
Colony counts after incubation [7, 11]: 22
Colony counts after incubation (Average) [7, 11]: 13
Colony counts after incubation (Duplicate) [7, 11]: 4
CFU/ml [7, 17]: 1.40E+08 CFU/ml
Colony counts after incubation [7, 17]: 6
Colony counts after incubation (Average) [7, 17]: 3.5
Colony counts after incubation (Duplicate) [7, 17]: 1
CFU/ml [7, 13]: 0.00E+00 CFU/ml
Colony counts after incubation [7, 13]: 0
Colony counts after incubation (Average) [7, 13]: 0
Colony counts after incubation (Duplicate) [7, 13]: 0
CFU/ml [7, 14]: 0.00E+00 CFU/ml
Colony counts after incubation [7, 14]: 0
Colony counts after incubation (Average) [7, 14]: 0
Colony counts after incubation (Duplicate) [7, 14]: 0
CFU/ml [7, 15]: 0.00E+00 CFU/ml
Colony counts after incubation [7, 15]: 0
Colony counts after incubation (Average) [7, 15]: 0
Colony counts after incubation (Duplicate) [7, 15]: 0
CFU/ml [7, 16]: 0.00E+00 CFU/ml
Colony counts after incubation [7, 16]: 0
Colony counts after incubation (Average) [7, 16]: 0
Colony counts after incubation (Duplicate) [7, 16]: 0
CFU/ml [7, 18]: 0.00E+00 CFU/ml
Colony counts after incubation [7, 18]: 0
Colony counts after incubation (Average) [7, 18]: 0
Colony counts after incubation (Duplicate) [7, 18]: 0
